Reference: paper PMC6219514, “Structural basis of Gip1 for cytosolic sequestration of G protein in wide-range chemotaxis” (Nature Communications, 2018)

Biological target: T1, GFP-Flag-tagged Gip1 (Gip1-GFPF) in complex with G proteins (Dictyostelium discoideum, UniProt Q55BQ2)
T1 construct: gene DDB_G0271086; full-length Gip1 (1-310) with GFP-Flag tag, expressed in Dictyostelium cells, on anti-Flag beads with co-purified G proteins; Gγ geranylgeranylated at Cys66
Assay: competitive dissociation of G proteins from bead-bound Gip1, immunoblot
Format: biochemical
Settings: CHAPS buffer pH 7.5, 4 °C, 1 h, 3.5% methanol

T1 sequence (Q55BQ2 entry or part of it, one chain of several): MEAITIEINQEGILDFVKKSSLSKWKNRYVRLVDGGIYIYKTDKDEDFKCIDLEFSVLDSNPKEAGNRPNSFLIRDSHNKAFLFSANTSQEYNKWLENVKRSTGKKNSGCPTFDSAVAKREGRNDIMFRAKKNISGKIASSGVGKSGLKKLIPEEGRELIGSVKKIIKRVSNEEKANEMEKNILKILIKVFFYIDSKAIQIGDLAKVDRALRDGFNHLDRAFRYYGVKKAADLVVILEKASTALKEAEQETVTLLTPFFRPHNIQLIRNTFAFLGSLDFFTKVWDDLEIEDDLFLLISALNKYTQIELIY

Compound	relative band intensity (0-100 µM, competitive with geranylgeranylated Gγ)	relative band intensity (100 µM)
CC(C)=CCC/C(C)=C/CC/C(C)=C/CC/C(C)=C/COP(=O)(O)OP(=O)(O)O [GG-pyroP, geranylgeranyl pyrophosphate]	the complex formation was competitively inhibited by the addition of geranylgeranyl pyrophosphate	
CC(C)=CCC/C(C)=C/CC/C(C)=C/COP(=O)(O)OP(=O)(O)O [farnesyl pyrophosphate]		Farnesyl pyrophosphate showed slight impairment of the Gip1–G protein complex
